Reference: patent publication US8026231B2, “Aminothiolester compounds, pharmaceutical and cosmetic compositions containing same and uses thereof” (CNRS, priority 2000, dated 2011)

Experiments:
[1] = system: L1210 cells; experiment: Growth of L1210 cells (viable cell count, Trypan blue); format: cell-based, mouse; details: 50% inhibition of growth
Procedure: (§1) The cells used correspond to various cell lines: human lung normal embryonic fibroblasts (MRC5), mouse melanoma cells (B16), mouse lymphocytic leukaemia cells (L1210) and L1210T cells obtained by infecting L1210 cells with a retroviral vector bearing human ALDH1 cDNA.
The procedure used for the tests on the L1210 cells is as follows: • 10^5 cells are incubated in the various wells of a microplate in 1 ml of culture medium. After incubating for 4 hours, the test compounds are added to the wells containing the L1210 cells.
For the L1210 cells, the growth is measured by counting the viable cells in the presence of 0.1% Trypan blue.
(§2) The IC50 concentration is the concentration corresponding to a 50% inhibition of growth of the cells.

[2] = system: R7 cells; experiment: Growth of R7 cells which overexpress the MDR gene; format: cell-based; details: increasing concentrations, 72 h, FIGS. 7 and 8
Procedure: (§3) 10^5 cells were incubated in the various wells of a microplate in 1 ml of culture medium. These are R7 cells, on the one hand, and K562 cells, on the other hand.
(§4) After incubating for 4 hours, the test compound (compound of Example 1 according to the invention, on the one hand, and daunorubicin, on the other hand) was added to the wells containing the cells.
(§5) After 72 hours, the cells were collected at different times.
(§6) The growth of the cells was measured by counting the viable cells in the presence of 0.1% Trypan blue.
(§7) FIGS. 7 and 8 respectively represent the percentage inhibition (I %) by daunorubicin and the compound of Example 1 on the growth of the R7 and K562 cells, obtained at increasing concentrations C. The results obtained with the K562 cells are symbolized by ♦ and those obtained with the R7 cells are symbolized by ▴.

[3] = system: B16 cells; experiment: Growth of B16 cells (protein and DNA assay); format: cell-based, mouse; details: 50% inhibition of growth
Procedure: as §1
The procedure used for the tests on the B16 and MRC5 cells is as follows: • The test compounds are added 4 hours after placing the cells in the wells. After 72 hours, the cells are removed at different times. The B16 and MRC5 cells are washed twice with PBS and recovered directly with 0.1M sodium chloride.
The effect on the growth of the B16 and MRC5 cells is measured by protein assay according to the Lowry method (Lowry, O. H., Rosenbrough, N. J., Farr, A. L. and Randall, J. Biol. Chem. 193, 265-275, (1951)) and DNA assay by the Hoechst method (West, D. C., Sattar, A. and Kumar, S., Anal. Biochem. 147, 289-295, (1985)).
as §2

[4] = system: K562 cells; experiment: Growth of K562 cells (control, no MDR overexpression); format: cell-based, human; details: increasing concentrations, 72 h, FIGS. 7 and 8
Procedure: as §3, §4, §5, §6, §7

[5] = system: BAF3-bcl2 B14 cells; experiment: Apoptosis induction (DNA fragmentation) in BAF3-bcl2 clone B14, 24 h; format: cell-based, mouse
Procedure: (§8) The BAF3-bcl2 cells correspond to BAF3 cells (mouse lymphocyte cells) tranfected with the bcl2 gene. Among these cells, four lines known as H16, G18, B14 and G21 overexpress the bcl2 gene.
(§9) Whereas the BAF3-b0 cells undergo apoptosis (more than 80% of the cells) in the absence of interleukin 3 (IL3) in 16 hours [according to Collins, M. K. L., Marvel, J., Malde, P. & Lopez-Rivas, A., J. Exp. Med. 176, 1043-1051, (1992)], the BAF3-bcl2 cells show no sign of apoptosis in the absence of IL3. They are thus apoptosis-resistant.
(§10) The procedure which was used is as follows: • The BAF3-b0 or BAF3-bcl2 cells, cultured in the presence of IL3, were labelled by a method adapted from that disclosed in Wright, S. et al., J. of Cell. Biochem. 48, 344-355, (1992).
(§11) 10^5 cells/ml were incubated with 4.62 KBq.ml^−1 [^3H]-thymidine for 40 hours at 37° C. After two washes with culture medium, 2.5×10^6 cells were cultured in the presence of the test compound.
(§12) After incubating for 24 hours, these cells were recovered by centrifugation at 400×g for 5 minutes and washed 3 times with PBS buffer. The cells recovered in the pellet were lysed in 2 ml of 0.1% Triton X-100, 20 mM EDTA, 5 mM Tris pH 8 and centrifuged at 30 000×g at 4° C. for 30 minutes.
(§13) The supernatants were recovered and the pellets dissolved in 0.3 ml of 0.5N NaOH.
(§14) Aliquots of the culture medium (1 ml), of the supernatant (0.3 ml) and of the dissolved pellet (0.1 ml) were assayed in a scintillation counter.
(§15) The percentage of DNA fragments is calculated in the following way:
(§16) The percentage of fragmentation of the DNA is a direct measure of the apoptosis which the cells have undergone.

[6] = system: DU145 cells; experiment: Combination of Example 1 and Metmetlico on the growth of DU145 cells; format: cell-based, human
Procedure: The cells used correspond to metastatic cells of human prostate cancer DU145. 10^5 DU145 cells are incubated in the various wells of a microplate in 1 ml of culture medium. The test compounds are added 4 hours after placing the cells in the wells. After 72 hours, the cells are removed at different times. The cells are washed twice with PBS and recovered directly with 0.1M sodium chloride. The effect on the growth of DU145 cells is measured by protein assay according to the Lowry method (Lowry, O. H., Rosenbrough, […]. and Randall, J. Biol. Chem. 193, 265-275, (1951)) and DNA assay by the Hoechst method (West, […]. and Kumar, S., Anal. Biochem. 147, 289-295, (1985)). The test compounds are the compound of Example 1, metmetlico and a mixture thereof.

[7] = system: BAF3 bcl2 cells; experiment: Growth of BAF3 bcl2 cells (viable cell count, Trypan blue); format: cell-based, murine; details: 50% inhibition of cell growth
Procedure: The cells used correspond to two cell lines: metastatic cells of human prostate cancer (DU145) and murine lymphoid cells transfected with the human bcl2 gene (BAF3 bcl2).
The procedure used for the tests on BAF3 bcl2 cells is as follows: • 10^5 cells are incubated in the various wells of a microplate in 1 ml of culture medium. After incubation for 4 hours, the test compounds are added to the wells containing the BAF3 bcl2 cells.
For the BAF3 bcl2 cells, the growth is measured by counting the viable cells in the presence of 0.1% Trypan blue. The control consists of thioampal, disclosed in patent application WO 98/44919.
The IC50 concentration is the concentration corresponding to a 50% inhibition of cell growth.

[8] = system: BAF3-bcl2 G18 cells; experiment: Apoptosis induction (DNA fragmentation) in BAF3-bcl2 clone G18, 24 h; format: cell-based, mouse
Procedure: as §8, §9, §10, §11, §12, §13, §14, §15, §16

[9] = system: BAF3-b0 cells; experiment: Apoptosis induction (DNA fragmentation) in BAF3-b0 cells, 24 h; format: cell-based, mouse
Procedure: as §8
Hereinbelow, the cells known as BAF3-b0 correspond to BAF3 cells not transfected with the bcl2 gene.
as §9, §10, §11, §12, §13, §14, §15, §16

`CSC(=O)C#CC(C)(C)N(C)C` [Example 1, S-methyl 4-dimethyl-amino-4-methyl-2-pentynethioate] was tested, and the IC50 [1] was 1.2 µM, the “Inhibition of the growth of the R7 cells” value [2] was “very strongly inhibits the growth of the R7 cells” and the IC50 [3] was 0.8 µM. The “Inhibition of the growth of the K562 cells” value [4] was “inhibitory effect obtained at the same concentrations on the growth of the K562 cells”, the “DNA fragmentation (%)” value ([5]; B14, 1 μM) was 0% and the “DNA fragmentation (%)” value ([5]; B14, 2 μM) was 2.0%. The “DNA fragmentation (%)” value ([5]; B14, 4 μM) was 44.1%, the “DNA fragmentation (%)” value ([5]; B14, 8 μM) was 90.0% and the “% Inhibition of growth of the DU145 cells” value (“% Inhibition” for short) ([6]; 2 μM) was 5.8%. For the same compound, the “% Inhibition” value ([6]; 3 μM) was 16.1%, the “% Inhibition” value ([6]; 4 μM) was 22.4% and the IC50 [7] was 0.25 µM. The “DNA fragmentation (%)” value ([8]; G18, 1 μM) was 0.6%, the “DNA fragmentation (%)” value ([8]; G18, 2 μM) was 7.3% and the “DNA fragmentation (%)” value ([8]; G18, 4 μM) was 52.7%. The “DNA fragmentation (%)” value ([8]; G18, 8 μM) was 84.3%, the “DNA fragmentation (%)” value ([9]; b0, 1 μM) was 5.0% and the “DNA fragmentation (%)” value ([9]; b0, 2 μM) was 10.6%. The “DNA fragmentation (%)” value ([9]; b0, 4 μM) was 46.4% and the “DNA fragmentation (%)” value ([9]; b0, 8 μM) was 71.1%.
